Experimental data taken from ChEMBL document CHEMBL3301546, “MMV Malaria Box yeast growth screening”.

What was measured:
Assay type in all cases: functional
Saccharomyces cerevisiae [1] = assay: (§1) MMV: Growth assays were conducted using the prototrophic S. cerevisiae strain JHY222. Each MMV compound (0.1 mM) was tested in minimal media containing dextrose as a carbon source (Yeast Nitrogen Base, Dextrose; YNBD). The growth rate in the presence of each MMV compound was calculated as follows: (i) the first 10 OD readings were averaged and subtracted from all OD readings of the corresponding curve to set the baseline of the growth curve to zero, and (ii) the area under the curve (AUC) was then calculated as the sum of all OD readings. […] A relative growth value was calculated as follows: AUC(DRUG) - AUC(DMSO)/AUC(DMSO); where AUC(DMSO) represents growth measured in a DMSO control well that was on the same microtiter plate of the drug-treated culture.
Saccharomyces cerevisiae [2] = assay: as §1, with “rich” for “minimal”, “Extract, Peptone,” for “Nitrogen Base,”, “YPD).” for “YNBD).”
Saccharomyces cerevisiae [3] = assay: as §1, with “ethanol and glycerol” for “dextrose”, “as” for “as a”, “sources” for “source”, “Ethanol, Glycerol; YNBEG).” for “Dextrose; YNBD).”

SMILES | Relative Growth (Saccharomyces cerevisiae [1]) | Relative Growth (Saccharomyces cerevisiae [2]) | Relative Growth (Saccharomyces cerevisiae [3])
c1ccc(/C2=N/c3ccccc3/N=C(/c3ccccc3)c3ccccc32)cc1 | -0.0429 | -0.0437 | -0.1082
Oc1ccccc1CN1CCC2(CCCN(Cc3ccccc3F)C2)C1 (stereo unspecified) | -0.0494 | -0.0746 | -0.309
Cl.N=c1n(CCN2CCCCC2)c2ccccc2n1CC(O)c1cccc(Br)c1 (stereo unspecified) | -0.2329 | -0.0788 | -0.5142
CCOC(=O)C1=C(C)N=c2sc(=Cc3ccccc3O)c(=O)n2C1c1ccc(OC)c2ccccc12 (stereo unspecified) | 0.0217 | -0.9923 | 0.0525
Cc1ccc(-c2cc(C(=O)Nc3ccc(S(=O)(=O)N4CCCCC4)cc3)[nH]n2)c(O)c1 | -0.0309 | -0.07 | -0.0163
CCOC(=O)C1=C(C)N=c2sc(=Cc3cc(Cl)ccc3O)c(=O)n2C1c1ccc(OC)cc1 (stereo unspecified) | 0.1077 | -0.1268 | 0.0816
O=C(NCc1ccco1)C1CCN(S(=O)(=O)c2ccc(Cl)cc2)CC1 | -0.224 | -0.0768 | -0.0245
FC(F)(F)c1cccc(Nc2nc3ccccc3nc2Nc2cccc(C(F)(F)F)c2)c1 | -0.0009 | -0.0449 | -0.1177
FC(F)(F)c1ccc(Nc2nnnc3ccccc23)cc1 | -0.0492 | -0.97 | 0.0852
c1ccc(-c2ccc(-c3nc4ccccc4[nH]3)cc2)cc1 | -0.0469 | -0.0154 | 0.0562
COc1ccc(CN2CCCC(C(=O)c3ccc(C(F)(F)F)cc3)C2)c(O)c1 (stereo unspecified) | -0.4404 | -0.2476 | -0.9168
COc1cccc(NC(=O)Cn2c(C)c(C#N)c3ccccc32)c1 | -1.0078 | -0.9399 | -1.0064
Cn1c(=O)c2cc(C(=O)NCCCN3CCCCCC3)sc2c2ccccc21 | -0.1099 | -0.0314 | 0.0018
O=C(NC1CCCCC1)C(c1cccs1)N(CCc1ccccc1)C(=O)c1ccco1 (stereo unspecified) | -0.1735 | -0.0109 | -0.2518
COc1ccc(C(=O)NC(c2ccc(Cl)cc2Cl)c2cc(Cl)c3cccnc3c2O)cc1 (stereo unspecified) | -0.2517 | 0.0373 | -0.3135
COc1ccc(CNC2CCN(c3ccc(NC(=O)c4cccc(Cl)c4)cc3)CC2)cc1OC | 0.0343 | -0.0405 | -0.0282
FC(F)(F)c1cccc(CNC2CCN(CCc3ccccc3)CC2)c1 | -0.0056 | -0.0003 | -0.3142
COc1ccc(C2NCCc3c2[nH]c2ccccc32)cc1CN1CCN(c2ccc(F)cc2)CC1.Cl (stereo unspecified) | 0.0397 | -0.0229 | -0.0259
COc1ccc(C(=O)Nc2ccc(Cl)cc2C(=O)Nc2ccncc2)cc1 | -0.1015 | -0.2989 | 0.1271
O=C(Nc1ccc(Cl)cc1)N1CCN(c2ccc3nncn3n2)CC1 | -0.0344 | 0.0021 | 0.053
COc1ccc(C2C(C(=O)Nc3cccc(OC)c3)c3ccccc3C(=O)N2C2CCCCC2)cc1 (stereo unspecified) | 0.0321 | -0.0663 | -0.1595
CCN(CC)c1ccc(NC(=O)c2cccs2)cc1 | -0.1938 | -0.0445 | -0.4168
CCOC(=O)c1cnc2ccc(Cl)cc2c1NCCCN(C)C | 0.0022 | 0.0203 | -0.0264
CCCCNCC(O)(c1ccc(Cl)cc1)c1ccc(Cl)cc1 | -0.2198 | 0.0298 | -0.1782
c1ccc2c(NCCc3c[nH]c4ccccc34)c3ccccc3nc2c1 | -0.0449 | -0.7261 | -0.0957
CCCC(c1nnnn1C1CCCCC1)N1CCN(C(=O)c2ccco2)CC1.Cl (stereo unspecified) | 0.0714 | -0.0604 | 0.0167
O=C1c2ccccc2C2=Nc3ccccc3SC(c3cccc(F)c3)C12 (stereo unspecified) | -0.0716 | 0.0574 | -0.2808
